Patent US6437138B1, “3-pyridyloxymethyl heterocyclic ether compounds useful in controlling chemical synaptic transmission” (priority 1996, dated 2002)
Counter-ions that a name gives are not always drawn.

melting point [°C]	SMILES
90 to 92	C=CCc1cc(OC[C@@H]2CCN2)cnc1Cl.Cl [Example 178, 5-Allyl-3-(2-(S)-azetidinylmethoxy)-6-chloropyridine Hydrochloride]
108 to 110	CN1CCC[C@H]1COc1cnc(Cl)c(-c2cccnc2)c1.Cl.Cl [Example 147, 6-Chloro-3-(1-methyl-2-(S)-pyrrolidinylmethoxy)-5-(3-pyridyl)pyridine Dihydrochloride]
78 to 79	CN1CC[C@H]1COc1cnc(Cl)c(-c2ccc(Cl)cc2)c1 (as salt: citrate) [Example 143, 6-Chloro-5-(4-chlorophenyl)-3-(1-methyl-2-(S)-azetidialmethoxy)pyridine Citrate]
68 to 70	Cl.Nc1cccc(-c2cncc(OC[C@@H]3CCCN3)c2)c1 [Example 158, 5-(3-Aminophenyl)-3-(2-(S)-pyrrolidinylmethoxy)pyridine Hydrochlorid]
102 to 105	CCCCCCCCC#Cc1cncc(OC[C@@H]2CCCN2C)c1.Cl.Cl [Example 9, 5-(1-Decynyl)-3-(1-methyl-2-(S)-pyrrolidinylmethoxy)pyridine Dihydrochloride]
220	CN1CCC[C@H]1COc1cnc(Cl)c(C=CC=CC(C)(C)C)c1.Cl.Cl [Example 149, 6-Chloro-5-(5,5-dimethyl-1,3-hexadienyl)-3-(1-methyl-2-(S)-pyrrolidinylmethoxy)pyridine Dihydrochloride]
105 to 107	C=Cc1ccc(OC[C@@H]2CCN2C)cn1.Cl.Cl [Example 202, 6-Ethenyl-3-(1-methyl-2-(S)-azetidinylmethoxy)pyridine Dihydrochloride]
172 to 174	Cl.Cl.c1ccc(COc2cncc(OC[C@@H]3CCN3)c2)cc1 [Example 199, 3-(2-(S)-Azetidinylmethoxy)-5-benzyloxypyridine Dihydrochloride]
143 to 144	CN1CC[C@H]1COc1cnc(Cl)c(-c2cncnc2)c1.Cl [Example 170, 6-Chloro-3-(1-methyl-2-(S)-azetidinylmethoxy)-5-(5-pyrimidinyl)pyridine Hydrochloride]
65 to 67	C=CCc1cncc(OC[C@@H]2CCCN2C)c1.Cl.Cl [Example 177, 5-Allyl-3-(1-methyl-2-(S)-pyrrolidinylmethoxy)pyridine Dihydrochloride]
156 to 158	C=Cc1cc(OC[C@@H]2CCN2C)cnc1F (hydrate or solvate) [Example 204, 5-Ethenyl-6-fluoro-3-(1-methyl-2-(S)-azetidinylmethoxy)pyridine]
214 to 216	C#Cc1cc(OC[C@@H]2CCCN2)cnc1Cl (as salt: hydrochloride) [Example 194, 6-Chloro-5-(ethynyl-3-(2-(S)-pyrrolidinylmethoxy)pyridine Hydrochloride]

SMILES	melting point [°C]
CN1CCC[C@H]1COc1cncc(C#CCCCC#N)c1 (as salt: hydrochloride) [Example 14, (5-(5-Cyano-1-pentynyl-3-(1-methyl-2-(S)-pyrrolidinylmethoxy)pyridine Dihydrochloride]	165 to 167
CN1CCC[C@H]1COc1cncc(-c2cnc3ccccc3c2)c1 (as salt: hydrochloride) [Example 35, 5-(3-Ouinolinyl)-3-(1-methyl-2-(S)-pyrrolidinylmethoxy)pyridine Trihydrochloride]	184 to 186
CN1CCC[C@H]1COc1cncc(-c2ccco2)c1 (as salt: hydrochloride) [Example 5, 5-(2-Furanyl-3-(1-methyl-2-(S)-pyrrolidinylmethoxy)pyridine Dihydrochloride]	189 to 191
Clc1ncc(OC[C@@H]2CCN2)cc1C=Cc1ccncc1 (as salt: citric acid salt) [Example 89, 5-(2-(4-Pyridinyl)ethenyl)-6-chloro-3-(2-(S)-azetidnylmethoxy)pyridine Citric Acid Salt]	195 to 197
